How the values were obtained:
TcPRAC = target: T1, TcPRAC (Trypanosoma cruzi, UniProt Q4DA80); assay: L-proline racemization assay, formed D-proline determined by DAAOx test; format: biochemical; settings: ligand 10 µM; 10 mM L-proline; 22.4 mg/ml TcPRAC; 5.0mM without ligand
T1 construct: implied only by nickel IMAC purification; made in house; host or cells: E. coli BL21 (DE3)
Method: Briefly, classical assays of Proline racemization induced by TcPRAC were performed in tubes in a final volume of 1.5 ml and optical rotations measured in a polarimeter 241MC (Perkin Elmer). Parallel assays of Proline racemization were transposed into microplates in a final volume of 100 µl, as follows: serial dilutions of L- Proline ranging from 40 mM to 2.5 mM were prepared in 0.2 M sodium acetate pH 6.0 containing 0.25 mM rTcPRAC and loaded into microplate wells in the presence or in the absence of 0 - 20 µM pyrrole-2 carboxylic acid (PYC) or of similar dilutions of unknown potential inhibitors. Specific control wells were included omitting the TcPRAC and/or the PYC.
Microplates were incubated for 30 minutes at 37° C. Enzyme activity was then inactivated by heating the plate for 15 seconds in a microwave oven at 900 watts after shifting the pH of wells to 8.3 by addition of 6.8 µl of 0.235 M sodium Pyrophosphate. 50 µl of each well were used to test the presence of D-Proline using the DAAOx (D-amino acid oxidase) test described below. L- amino acids may react at very low rate with DAAOx. For instance, DAAOx reacts with L-Proline 300 times slower than D-Proline. Consequently, when assessing amino acid racemization products, standards should consist of serial dilution of equimolar mixtures of specific D- and L-amino acids ranging from 0 to 20 mM (10 mM final) to take into account any interference of possible reactivity with DAAOx of the L- form of amino acids present in the samples.
Solution A consisting of 0.2 M sodium acetate/0.016 M sodium pyrophosphate (Pop) buffer, pH 8.3 was used to prepare the enzyme stock solutions conserved in 50% glycerol, namely: 50 U/ml D-amino acid oxidase from pig kidney (DAAOx, Sigma) and 5000 U/ml Horse Raddish Peroxydase (HRP, Sigma). Stock solutions of L- proline (1M), D- proline (1M) and Pyrrole-2-carboxylic acid (10 mM) (PYC, Sigma) are also prepared in solution A. 10^-1 M FAD (Sigma) stock was prepared in water. Solution B consists in adding to solution A the following reagents at a final concentration in the assay of 1 U/ml for DAAOx, 0.5 mg/ml orthophenylenediamine (OPD, Sigma), 37.5 U/ml HRP and FAD (1.5x10^-5 M FAD). The test is run in 96 wells micro plates (Nunc, Denmark). […] OD 490nm - 650nm is obtained with a microtiter plate reader (Molecular Devices), and compared to those obtained with blank control wells.
The values presented in Table 2A correspond to racemization reactions performed in the absence or in the presence of 10 µM concentration of the different ligands. […] Briefly, 22.4 mg/ml of active TcPRAC was used in the racemization assays of 10 mM L-proline substrate and the concentration of formed D-proline was determined by the DAAOx test, as described in the Material and Methods. […]

Vero cells = assay: Toxicity for Vero cells, Trypan Blue exclusion; format: cell-based, green monkey; settings: 10 µM, 48h
Method: Finally both the compounds OxoPA and Br-OxoPA were tested at a concentration of 10 µM for toxicity of Vero cells for 48h. Both compounds are not toxic as evaluated by Trypan Blue exclusion (not shown).

[1] = test system: T.cruzi CL Brener (clone F11-F5); assay: Vero cell infection by trypomastigotes in the presence of inhibitor (17h), Giemsa scoring; format: cell-based; set-up: key: EI = % infected cells × mean parasites per infected cell; settings: Table 5

T1 sequence (Q4DA80 32-423): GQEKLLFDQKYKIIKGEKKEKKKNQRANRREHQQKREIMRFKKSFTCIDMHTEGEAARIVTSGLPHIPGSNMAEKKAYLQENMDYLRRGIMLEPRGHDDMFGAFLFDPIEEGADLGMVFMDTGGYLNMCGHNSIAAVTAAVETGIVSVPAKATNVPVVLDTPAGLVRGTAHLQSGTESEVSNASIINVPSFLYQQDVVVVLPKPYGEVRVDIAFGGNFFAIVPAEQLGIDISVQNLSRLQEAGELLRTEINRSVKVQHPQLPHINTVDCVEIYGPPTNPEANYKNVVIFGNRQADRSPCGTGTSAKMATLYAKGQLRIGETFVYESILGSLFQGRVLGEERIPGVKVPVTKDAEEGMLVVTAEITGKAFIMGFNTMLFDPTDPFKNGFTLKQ

SMILES | Formed D-Proline (TcPRAC) | toxicity of Vero cells (Vero cells) | Endocytic index (EI) ([1]; Inhibitor concentration (µM) 3) | Endocytic index (EI) ([1]; Inhibitor concentration (µM) 10)
O=C(O)/C=C/C(=O)CBr [Br-OxoPA, (E)-5-bromo-4-oxopent-2-enoic acid] | < 0,3 mM | not toxic | 78 | 
CC(=O)/C=C/C(=O)O [OxoPA, (E)-4-oxopent-2-enoic acid] | < 0,3 mM | not toxic | 42 | 23
